Laboratory results taken from patent US6403622B1, “Phenylacetic acid heterocyclyl amides having an insecticidal effect” (Bayer Aktiengesellschaft, priority 1998, dated 2002).
Where two headings read alike, the source gives them in different places.

Assays:
[1] = test system: larvae of the mustard beetle (Phaedon cochleariae); assay: Phaedon larvae test; type: in vivo; conditions: 168 h, concentration of active compound 0.1 %, cabbage leaves dipped, after 7 d, read-out: Kill rate in % after 7 d
Method: Solvent: 7 parts by weight of dimethylformamide Emulsifier: 1 part by weight of alkylaryl polyglycol ether To produce a suitable preparation of active compound, 1 part by weight of active compound is mixed with the stated amount of solvent and the stated amount of emulsifier, and the concentrate is diluted with water to the desired concentration. Cabbage leaves (Brassica oleracea) are treated by being dipped into the preparation of active compound and are populated with larvae of the mustard beetle (Phaedon cochleariae) while the leaves are still moist.

Plasmopara vilicola = assay: Plasmopara test (grapevine) / protective; type: in vivo; conditions: 144 h, application rate 100 g/ha, evaluation 6 days after inoculation, read-out: Efficacy in %
Method: (§1) Solvent: 47 parts by weight of acetone
(§2) Emulsifier: 3 parts by weight of alkylaryl polyglycol ether
(§3) To produce a suitable preparation of active compound, 1 part by weight of active compound is mixed with the stated amounts of solvent and emulsifier, and the concentrate is diluted with water to the desired concentration.
To test for the protective activity, young plants are sprayed with the preparation of active compound at the stated application rate. After the spray coating has dried on, the plants are inoculated with an aqueous spore suspension of Plasmopara vilicola and then remain in an incubation cabin at about 20° C. and 100% relative atmospheric humidity for 1 day. The plants are then placed in a greenhouse at about 21° C. and about 90% relative atmospheric humidity for 5 days. The plants are then moistened and placed in an incubation cabin for 1 day.
Evaluation is carried out 6 days after the inoculation. 0% means an efficacy which corresponds to that of the control, whereas an efficacy of 100% means that no infection is observed.

Podosphaera leucotricha = assay: Podosphaera test (apple) / protective; type: in vivo; conditions: application rate 100 g/ha, evaluation 10 days after inoculation
Method: as §1, §2, §3
To test for protective activity, young plants are sprayed with the preparation of active compound at the stated application rate. After the spray coating has dried on, the plants are inoculated with an aqueous spore suspension of the causative organism of apple mildew Podosphaera leucotricha. The plants are then placed in a greenhouse at about 23° C. and a relative atmospheric humidity of about 70%.
Evaluation is carried out 10 days after the inoculation. 0% means an efficacy which corresponds to that of the control, whereas an efficacy of 100% means that no infection is observed.

[2] = test system: caterpillars of the army worm Spodoptera frugiperda; assay: Spodoptera frugiperda test; type: in vivo; conditions: concentration of active compound 0.1 %, cabbage leaves dipped
Method: (§4) Solvent: 7 parts by weight of dimethylformamide
(§5) Emulsifier: 1 part by weight of alkylaryl polyglycol ether
(§6) To produce a suitable preparation of active compound, 1 part by weight of active compound is mixed with the stated amount of solvent and the stated amount of emulsifier, and the concentrate is diluted with water to the desired concentration.
Cabbage leaves (Brassica oleracea) are treated by being dipped into the preparation of active compound of the desired concentration and are populated with caterpillars of the army worm Spodoptera frugiperda while the leaves are still moist.
After the desired period of time, the effect in % is determined. 100% means that all caterpillars have been killed; 0% means that none of the caterpillars have been killed.

log p determination = type: physicochemical
[3] = test system: larvae of the green rice leafhopper (Nephotettix cincticeps); assay: Nephotettix test; type: in vivo; conditions: concentration of active compound 0.1 %, rice seedlings dipped
Method: as §4, §5, §6
Rice seedlings (Oryza sativa) are treated by being dipped into the preparation of active compound of the desired concentration and are populated with larvae of the green rice leafhopper (Nephotettix cincticeps) while the seedlings are still moist.
After the desired period of time, the kill in % is determined. 100% means that all leaf hoppers have been killed; 0% means that none of the leaf hoppers have been killed.

[4] = test system: greenhouse red spider mite (Tetranychus urticae); assay: Tetranychus test (OP-resistant/dip treatment); type: in vivo; conditions: concentration of active compound 0.01 %, bean plants dipped, OP-resistant
Method: as §4, §5
To produce a suitable preparation of active compound, 1 part by weight of active compound is mixed with the stated amount of solvent and the stated amount of emulsifier, and the concentrate is diluted with emulsifier-containing water to the desired concentrations.
Bean plants (Phaseolus vulgaris) which are heavily infested by all stages of the greenhouse red spider mite (Tetranychus urticae) are dipped into a preparation of active compound of the desired concentration.
After the desired period of time, the effect in % is determined. 100% means that all spider mites have been killed; 0% means that none of the spider mites have been killed.

[5] = test system: Erysiphe graminis f.sp. tritici; assay: Erysiphe test (wheat) / protective; type: in vivo; conditions: evaluation 7 days after inoculation
Method: Solvent: 25 parts by weight of N,N-dimethylacetamide
Emulsifier: 0.6 part by weight of alkylaryl polyglycol ether
as §3
To test for protective activity, young plants are sprayed with the preparation of active compound at the stated application rate.
After the spray coating has dried on, the plants are dusted with spores von Erysiphe graminis f.sp. tritici.
The plants are placed in a greenhouse at a temperature of about 20° C. and a relative atmospheric humidity of about 80% to promote the development of mildew pustules.
Evaluation is carried out 7 days after the inoculation. 0% means an efficacy which corresponds to that of the control, whereas an efficacy of 100% means that no infection is observed.

[6] = acidic, isomer mixtures, the higher log p value is stated, Table 13, read-out: log p (acidic)
[7] = pH 2.3, pH 2.3, for Example 1 two values for the two isomers, read-out: log p (pH 2.3)

| logP (log p determination; [6]) | logP (log p determination; [7]) | Structure (SMILES) | pest or weed control at 0.1 % [1] [%] | pest or weed control at 100 g/ha (Plasmopara vilicola) [%] | Efficacy in % (Podosphaera leucotricha) [%] | also measured |
| --- | --- | --- | --- | --- | --- | --- |
| 4.35 | – | Cc1nsc(NC(=O)Cc2ccc(C3(C)OCC(c4ccc(Cl)cc4)O3)cc2)c1Cl (centres unmarked) [Example 17] | 100 | 97 | 99 | Kill rate in % after 7 d [2]: 100% |
| 4.82 | – | Cc1nsc(NC(=O)Cc2ccc(C3(C)OCC(c4ccc(Cl)c(Cl)c4)O3)cc2)c1Cl (centres unmarked) [Example 16] | 100 | – | – | – |
| 4.32 | – | Cc1nsc(NC(=O)Cc2ccc(C3(C)OCC(c4cccc(Cl)c4)O3)cc2)c1Cl (centres unmarked) [Example 15] | – | 97 | – | – |
| 4.21 | – | Cc1nsc(NC(=O)Cc2ccc(C3(C)OCC(CBr)(CBr)CO3)cc2)c1Cl [Example 20] | – | 96 | – | Kill rate in % after 6 d [3]: 100%; Kill rate in % after 7 d [2]: 100% |
| – | 2.14 | CC(=O)c1cccc(CC(=O)Nc2snc(C)c2Cl)c1 [Example 31, 5-[3-(acetylphenyl)-acetaminol]-4-chloro-3-methyl-isothiazole] | – | – | – | melting point: 77 to 83 °C |
| – | 1.56 | CC(=O)c1cccc(CC(=O)Nc2nc(C)ns2)c1 [Example 29, 5-[3(-acetylphenyl)acetaminol]-3-methyl-1,2,4-thiadiazole] | – | – | – | melting point: 91 to 98 °C |
| – | 1.87 | CCc1nsc(NC(=O)Cc2cccc(C(C)=O)c2)n1 [Example 30] | – | – | – | melting point: 121 to 125 °C |

Second part, the compound before the results:

| Structure (SMILES) | logP (log p determination; [6]) | logP (log p determination; [7]) | pest or weed control at 0.1 % [1] [%] | pest or weed control at 100 g/ha (Plasmopara vilicola) [%] | Efficacy in % (Podosphaera leucotricha) [%] | also measured |
| --- | --- | --- | --- | --- | --- | --- |
| Cc1nsc(NC(=O)Cc2ccc(C3(C)OCC(C(C)(C)C)O3)cc2)c1Cl (centres unmarked) [Example 5] | 4 | – | – | – | – | Kill rate in % after 6 d [3]: 100%; Kill rate in % after 7 d [4]: 100% |
| Cc1nsc(NC(=O)Cc2ccc(C3(C)OCC(CCl)O3)cc2)c1Cl (centres unmarked) [Example 6] | 3.09 | – | 100 | 100 | – | Kill rate in % after 6 d [3]: 100% |
| CC(=O)c1ccc(CC(=O)Nc2snc(C)c2Cl)cc1 | – | 2.12 | – | – | – | – |
| Cc1nsc(NC(=O)Cc2ccc(C3(C)OCC(COc4ccc(Cl)cc4)O3)cc2)c1Cl (centres unmarked) [Example 9] | 4.24 | – | 100 | 100 | 97 | – |
| Cc1nsc(NC(=O)Cc2ccc(C3(C)OCC(c4ccccc4)O3)cc2)c1Cl (centres unmarked) [Example 3] | 3.83 | – | 100 | 99 | 99 | Kill rate in % after 7 d [4]: 100% |
| CCCCCCCCC1COC(C)(c2ccc(CC(=O)Nc3snc(C)c3Cl)cc2)O1 (centres unmarked) [Example 1] | – | 5.84 | 100 | – | – | log p (pH 2.3) (log p determination; pH 2.3, for Example 1 two values for the two isomers): 6.05 |
| CCC1COC(C)(c2ccc(CC(=O)Nc3snc(C)c3Cl)cc2)O1 (centres unmarked) [Example 7] | 3.23 | – | 100 | 100 | 97 | Kill rate in % after 6 d [3]: 100%; Efficacy in % ([5]; application rate 1000 g/ha): 81%; Kill rate in % after 7 d [2]: 100% |
| CC=CCCCC1COC(C)(c2ccc(CC(=O)Nc3snc(C)c3Cl)cc2)O1 (centres unmarked) [Example 8] | 4.4 | – | 100 | 97 | 95 | Kill rate in % after 7 d [4]: 100%; Efficacy in % ([5]; application rate 500 g/ha): 81%; Kill rate in % after 7 d [2]: 100% |
| C=CCOCC1COC(C)(c2ccc(CC(=O)Nc3snc(C)c3Cl)cc2)O1 (centres unmarked) [Example 4] | 3.23 | – | – | 100 | – | Kill rate in % after 7 d [4]: 100% |
